Source: PubChem BioAssay AID1963875 (Molecular Pharmacology Branch, DTP, NCI, 2024)

Test system: KRAS-mutant PDC complex spheroid viability
Assay: Anticancer human tumor 186277-243-T-J2-PDC patient-derived colon adenocarcinoma cell line growth inhibition [KRAS2]
Conditions: for IC50: curve of first compound; for viability, T/C: stronger effect = lower value
Excerpt: Multicellular complex tumor spheroid response to RAS pathway inhibitors in combination with a targeted agents in patient-derived cell lines with oncogenic KRAS variants from multiple cancer types
A high-throughput screen of multi-cell type tumor spheroids was designed to identify active combinations of targeted small molecules and KRAS pathway inhibitors. Complex spheroids include a stromal component modeled by human endothelial cells (HUVEC) and fibroblasts modeled by human mesenchymal stem cells (MSCs). The concentration ranges selected for each drug and investigational agent were based upon clinically achievable concentrations if the clinical Cmax of the agent was known.
Compounds. The drugs and investigational agents: BI-3406 (NSC825286), BAY-293 (NSC824723), batoprotafib (TNO155; NSC825523), sotorasib (AMG 510; NSC818433), MRTX1257 (NSC819558), elimusertib (BAY 1895344; NSC800525), molibresib (GSK525762; NSC774829), temuterkib (LY3214996; NSC803410), venetoclax (NSC766270), alisertib (NSC759677), olaparib (NSC753686), talazoparib (NSC767125), erdafitinib (NSC781556), ipatasertib (NSC767898), cabozantinib (NSC761068), nintedanib (NSC756659), abemaciclib (NSC768073), docetaxel (NSC628503), trametinib (NSC758246), and sapanisertib (NSC764658) were obtained from the National Cancer Institute (NCI) Developmental Therapeutics Program Chemical Repository. The FDA-approved anticancer drug set is available from the Developmental Therapeutics Program. […] The stock solutions were prepared in dimethyl sulfoxide (DMSO, Sigma-Aldrich, St. Louis, MO, cat. D2650) at 800-fold the tested concentration and stored at -70 degrees C prior to their use. All drugs and investigational agents were tested over a range starting from a high concentration at or near the clinical Cmax and decreasing in half-log increments. If the clinical Cmax for an agent had not been determined, the highest concentration tested was 10 microM.
Cell Culture. All cells were maintained in an incubator at 37 degrees C and 5% CO2 with 95% humidity. The PDC lines were cultured according to standard operating procedures established by the NCI PDMR (https://pdmr.cancer.gov/sops/default.htm). Briefly, all PDCs were thawed and cultured in Matrigel-coated flasks prepared with a working solution of 1X Ham's F-12 nutrient mix, without supplementation (Invitrogen, Waltham, MA, cat. 11765054), 100 U/mL penicillin-streptomycin (Invitrogen, cat. 15140122), and 2.5% Matrigel (Corning Inc., Corning, NY, cat. 354248) for the first three passages. All PDCs were cultured in complete DMEM/F-12 media containing advanced DMEM/F-12 (Invitrogen, cat. 12634028), 4.9% defined fetal bovine serum, heat inactivated (HyClone Laboratories Inc., Logan, UT, cat. SH30070.03HI), 389 ng/mL hydrocortisone (Sigma-Aldrich, cat. H4001), 9.7 ng/mL human EGF recombinant protein (Invitrogen, cat. PHG0313), 23.4 microg/mL adenine (Sigma-Aldrich, cat. A2786), 97.3 U/mL penicillin-streptomycin (Invitrogen, cat. 15140122), 1.9 mM L-glutamine (Invitrogen, cat. 25030081), and 9.7 microM Y-27632 dihydrochloride (Tocris Bioscience, Bristol, United Kingdom, cat. 1254). The PDCs were cultured in complete DMEM/F12 media without 9.7 microM Y-27632 dihydrochloride for at least two passages prior to the screen. The established cell line HOP-62 was cultured in RPMI 1640 medium, HEPES (Invitrogen, cat. 22400105) with 10% defined fetal bovine serum (HyClone Laboratories Inc., cat. SH30070.03) and 2 mM L-glutamine (Invitrogen, cat. 25030081). The pooled donor HUVEC were cultured in endothelial cell growth medium 2 (PromoCell, Heidelberg, Germany, cat. C-22011) and the hMSC were cultured in mesenchymal stem cell growth medium 2 (PromoCell, cat. C-28009). For all experiments, HUVEC and hMSC were used at passages </=5, while the malignant cell lines were used at passages </=15. […]

[1] = second compound 0.1 µM, first compound 0.0316 µM
[2] = second compound 0.1 µM, first compound 0.1 µM
[3] = second compound 0.1 µM, first compound 0.316 µM
[4] = second compound 0.1 µM, first compound 1 µM
[5] = second compound 0.316 µM, first compound 0.0316 µM
[6] = second compound 0.316 µM, first compound 0.1 µM
[7] = second compound 0.316 µM, first compound 0.316 µM
[8] = second compound 0.316 µM, first compound 1 µM
[9] = second compound 1 µM, first compound 0.0316 µM
[10] = second compound 1 µM, first compound 0.1 µM
[11] = second compound 1 µM, first compound 0.316 µM
[12] = second compound 1 µM, first compound 1 µM
[13] = second compound 3.16 µM, first compound 0.0316 µM
[14] = second compound 3.16 µM, first compound 0.1 µM
[15] = second compound 3.16 µM, first compound 0.316 µM
[16] = second compound 3.16 µM, first compound 1 µM
[17] = second compound 10 µM, first compound 0.0316 µM
[18] = second compound 10 µM, first compound 0.1 µM
[19] = second compound 10 µM, first compound 0.316 µM
[20] = second compound 10 µM, first compound 1 µM
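For viability, T/C in this document: viability read after seven days of compound exposure; 100% = DMSO vehicle-treated spheroids so lower means less viable.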

| SMILES | IC50 (second compound 0.1 µM) [nM] | IC50 (second compound 0.316 µM) [nM] | IC50 (second compound 1 µM) [nM] | IC50 (second compound 3.16 µM) [nM] | IC50 (second compound 10 µM) [nM] | viability, T/C [1] [%] | viability, T/C [2] [%] | viability, T/C [3] [%] | viability, T/C [4] [%] | viability, T/C [5] [%] | viability, T/C [6] [%] | viability, T/C [7] [%] | viability, T/C [8] [%] | viability, T/C [9] [%] | viability, T/C [10] [%] | viability, T/C [11] [%] | viability, T/C [12] [%] | viability, T/C [13] [%] | viability, T/C [14] [%] | viability, T/C [15] [%] | also measured |
| --- | --- | --- | --- | --- | --- | --- | --- | --- | --- | --- | --- | --- | --- | --- | --- | --- | --- | --- | --- | --- | --- |
| Cn1nccc1Nc1nccc(-c2cc3c(s2)C(C)(C)N(CCN2CCOCC2)C3=O)n1 + C=CC(=O)N1CCN(c2nc(=O)n(-c3c(C)ccnc3C(C)C)c3nc(-c4c(O)cccc4F)c(F)cc23)C(C)C1 | 415 | 507 | 497 | 289 | 102 | 101 | 89.7 | 62.6 | 10.8 | 92.9 | 91.9 | 73.7 | 15.9 | 97.5 | 85.5 | 74.2 | 12.6 | 89.1 | 83.5 | 47.4 | viability, T/C (second compound 0.1 µM, first compound 3.16 µM): 5.84%; viability, T/C (second compound 0.1 µM, first compound 10 µM): 9.07%; viability, T/C (second compound 0.316 µM, first compound 3.16 µM): 7.21%; viability, T/C (second compound 0.316 µM, first compound 10 µM): 9.45%; viability, T/C (second compound 1 µM, first compound 3.16 µM): 8.16%; viability, T/C (second compound 1 µM, first compound 10 µM): 10.1%; viability, T/C [16]: 9.35%; viability, T/C (second compound 3.16 µM, first compound 3.16 µM): 11.3%; viability, T/C (second compound 3.16 µM, first compound 10 µM): 9.1%; viability, T/C [17]: 70.3%; viability, T/C [18]: 50.8%; viability, T/C [19]: 12.8%; viability, T/C [20]: 5.63%; viability, T/C (second compound 10 µM, first compound 3.16 µM): 2.98%; viability, T/C (second compound 10 µM, first compound 10 µM): 2.56% |
| CCN1CCN(Cc2ccc(Nc3ncc(F)c(-c4cc(F)c5nc(C)n(C(C)C)c5c4)n3)nc2)CC1 + CNCc1ccccc1-c1csc(C(C)Nc2nc(C)nc3cc(OC)c(OC)cc23)c1 | > 1000 | 970 | 687 | 115 | < 3.16 | 93 | 117 | 171 | 72.5 | 106 | 144 | 144 | 48.3 | 96.2 | 132 | 119 | 23.6 | 118 | 56 | 14 | viability, T/C (second compound 0.1 µM, first compound 0.00316 µM): 97.5%; viability, T/C (second compound 0.1 µM, first compound 0.01 µM): 86.7%; viability, T/C (second compound 0.316 µM, first compound 0.00316 µM): 87%; viability, T/C (second compound 0.316 µM, first compound 0.01 µM): 91.3%; viability, T/C (second compound 1 µM, first compound 0.00316 µM): 90%; viability, T/C (second compound 1 µM, first compound 0.01 µM): 85.5%; viability, T/C (second compound 3.16 µM, first compound 0.00316 µM): 80.7%; viability, T/C (second compound 3.16 µM, first compound 0.01 µM): 85.4%; viability, T/C [16]: 0.14%; viability, T/C (second compound 10 µM, first compound 0.00316 µM): 0.18%; viability, T/C (second compound 10 µM, first compound 0.01 µM): 0.37%; viability, T/C [17]: 0.19%; viability, T/C [18]: 0.15%; viability, T/C [19]: 0.41%; viability, T/C [20]: 0.15% |
